Assay in all cases: relative viability (nuclei count vs DMSO), 5 days (fraction); higher = more cells survive
Compound in the assay “Gemcitabine + Navitoclax”: Nc1ccn([C@@H]2O[C@H](CO)[C@@H](O)C2(F)F)c(=O)n1 [Gemcitabine] + CC1(C)CCC(c2ccc(Cl)cc2)=C(CN2CCN(c3ccc(C(=O)NS(=O)(=O)c4ccc(N[C@H](CCN5CCOCC5)CSc5ccccc5)c(S(=O)(=O)C(F)(F)F)c4)cc3)CC2)C1 [Navitoclax] (partner 0.5 µM)
The method, boiled down:
(§1)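 Five library-drug doses in √10 steps were combined with a fixed anchor-drug dose, or a single drug was given alone, by pin tool to lung cancer cell lines in 1536-well plates the day after seeding. Nuclei were stained and counted after 5 days. Relative viability is the nuclei count in treated wells over that in vehicle wells, taken as the median of duplicate plates.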

Compound in the assay “Gemcitabine + Trametinib”: Nc1ccn([C@@H]2O[C@H](CO)[C@@H](O)C2(F)F)c(=O)n1 [Gemcitabine] + CC(=O)Nc1cccc(-n2c(=O)n(C3CC3)c(=O)c3c(Nc4ccc(I)cc4F)n(C)c(=O)c(C)c32)c1 [Trametinib] (partner 0.02 µM)
A digest of the protocol:
as §1

Compound in the assay “Gemcitabine + Phenformin”: Nc1ccn([C@@H]2O[C@H](CO)[C@@H](O)C2(F)F)c(=O)n1 [Gemcitabine] + N=C(N)NC(=N)NCCc1ccccc1 [Phenformin] (partner 250 µM)
A digest of the protocol:
as §1

Compound in the assay “Gemcitabine + Pemetrexed”: Nc1ccn([C@@H]2O[C@H](CO)[C@@H](O)C2(F)F)c(=O)n1 [Gemcitabine] + Nc1nc2[nH]cc(CCc3ccc(C(=O)N[C@@H](CCC(=O)O)C(=O)O)cc3)c2c(=O)[nH]1 [Pemetrexed] (partner 0.2 µM)
The method, boiled down:
as §1

As to NCI-H2087, the relative viability was found to be 1.11 in the assay with Gemcitabine + Navitoclax (first compound 0.001 µM); 0.813 with Gemcitabine + Navitoclax (first compound 0.003162 µM); 0.397 in the assay with Gemcitabine + Navitoclax (first compound 0.01 µM); 0.156 with Gemcitabine + Navitoclax (first compound 0.03162 µM); 0.153 in the assay with Gemcitabine + Navitoclax (first compound 0.1 µM); 0.191 with Gemcitabine + Trametinib (first compound 0.001 µM). Further, the relative viability stood at 0.204 with Gemcitabine + Trametinib (first compound 0.003162 µM); 0.141 in the assay with Gemcitabine + Trametinib (first compound 0.01 µM); 0.121 in the assay with Gemcitabine + Trametinib (first compound 0.03162 µM); 0.0794 with Gemcitabine + Trametinib (first compound 0.1 µM); 0.455 with Gemcitabine + Phenformin (first compound 0.001 µM); 0.231 with Gemcitabine + Phenformin (first compound 0.003162 µM). The relative viability was 0.149 with Gemcitabine + Phenformin (first compound 0.01 µM); 0.108 in the assay with Gemcitabine + Phenformin (first compound 0.03162 µM); 0.113 with Gemcitabine + Phenformin (first compound 0.1 µM); 0.666 with Gemcitabine + Pemetrexed (first compound 0.001 µM); 0.581 with Gemcitabine + Pemetrexed (first compound 0.003162 µM); 0.263 with Gemcitabine + Pemetrexed (first compound 0.01 µM). In addition, the relative viability in the assay with Gemcitabine + Pemetrexed (first compound 0.03162 µM) worked out at 0.113; in the assay with Gemcitabine + Pemetrexed (first compound 0.1 µM) it was 0.105.

In the case of LU99A, the relative viability with Gemcitabine + Navitoclax (first compound 0.001 µM) stood at 0.875; in the assay with Gemcitabine + Navitoclax (first compound 0.003162 µM) it was 0.976; in the assay with Gemcitabine + Navitoclax (first compound 0.01 µM) it was 0.667; with Gemcitabine + Navitoclax (first compound 0.03162 µM), 0.871; with Gemcitabine + Navitoclax (first compound 0.1 µM) it was 0.474; in the assay with Gemcitabine + Trametinib (first compound 0.001 µM), 0.575. Moreover, the relative viability amounted to 0.635 with Gemcitabine + Trametinib (first compound 0.003162 µM); 0.563 in the assay with Gemcitabine + Trametinib (first compound 0.01 µM); 0.594 in the assay with Gemcitabine + Trametinib (first compound 0.03162 µM); 0.387 with Gemcitabine + Trametinib (first compound 0.1 µM); 0.857 with Gemcitabine + Phenformin (first compound 0.001 µM); 0.949 with Gemcitabine + Phenformin (first compound 0.003162 µM). Besides, the relative viability with Gemcitabine + Phenformin (first compound 0.01 µM) was found to be 0.805; with Gemcitabine + Phenformin (first compound 0.03162 µM) it was 0.801; with Gemcitabine + Phenformin (first compound 0.1 µM), 0.789; with Gemcitabine + Pemetrexed (first compound 0.001 µM), 0.177; with Gemcitabine + Pemetrexed (first compound 0.003162 µM) it was 0.181; in the assay with Gemcitabine + Pemetrexed (first compound 0.01 µM), 0.186. The relative viability with Gemcitabine + Pemetrexed (first compound 0.03162 µM) was 0.198; in the assay with Gemcitabine + Pemetrexed (first compound 0.1 µM) it was 0.214.

Turning to NCI-H1355, the relative viability was 0.937 with Gemcitabine + Navitoclax (first compound 0.001 µM); 0.461 with Gemcitabine + Navitoclax (first compound 0.003162 µM); 0.168 in the assay with Gemcitabine + Navitoclax (first compound 0.01 µM); 0.109 with Gemcitabine + Navitoclax (first compound 0.03162 µM); 0.112 with Gemcitabine + Navitoclax (first compound 0.1 µM); 0.426 with Gemcitabine + Trametinib (first compound 0.001 µM). Moreover, the relative viability in the assay with Gemcitabine + Trametinib (first compound 0.003162 µM) was determined as 0.363; with Gemcitabine + Trametinib (first compound 0.01 µM) it was 0.245; with Gemcitabine + Trametinib (first compound 0.03162 µM), 0.189; with Gemcitabine + Trametinib (first compound 0.1 µM), 0.154; with Gemcitabine + Phenformin (first compound 0.001 µM) it was 0.444; in the assay with Gemcitabine + Phenformin (first compound 0.003162 µM), 0.297. For the same cell line, the relative viability amounted to 0.214 with Gemcitabine + Phenformin (first compound 0.01 µM); 0.202 with Gemcitabine + Phenformin (first compound 0.03162 µM); 0.178 with Gemcitabine + Phenformin (first compound 0.1 µM); 1 in the assay with Gemcitabine + Pemetrexed (first compound 0.001 µM); 0.885 with Gemcitabine + Pemetrexed (first compound 0.003162 µM); 0.455 with Gemcitabine + Pemetrexed (first compound 0.01 µM). Further, the relative viability in the assay with Gemcitabine + Pemetrexed (first compound 0.03162 µM) stood at 0.173; in the assay with Gemcitabine + Pemetrexed (first compound 0.1 µM), 0.162.

As for NCI-H520, the relative viability in the assay with Gemcitabine + Navitoclax (first compound 0.001 µM) was 1.23; with Gemcitabine + Navitoclax (first compound 0.003162 µM), 1.17; in the assay with Gemcitabine + Navitoclax (first compound 0.01 µM) it was 0.35; with Gemcitabine + Navitoclax (first compound 0.03162 µM) it was 0.205; with Gemcitabine + Navitoclax (first compound 0.1 µM), 0.158; with Gemcitabine + Trametinib (first compound 0.001 µM), 0.848. For the same cell line, the relative viability with Gemcitabine + Trametinib (first compound 0.003162 µM) is 0.752; with Gemcitabine + Trametinib (first compound 0.01 µM), 0.159; in the assay with Gemcitabine + Trametinib (first compound 0.03162 µM), 0.143; with Gemcitabine + Trametinib (first compound 0.1 µM), 0.144; in the assay with Gemcitabine + Phenformin (first compound 0.001 µM) it was 0.536; with Gemcitabine + Phenformin (first compound 0.003162 µM), 0.554. The relative viability with Gemcitabine + Phenformin (first compound 0.01 µM) came out at 0.225; in the assay with Gemcitabine + Phenformin (first compound 0.03162 µM), 0.163; with Gemcitabine + Phenformin (first compound 0.1 µM), 0.154; with Gemcitabine + Pemetrexed (first compound 0.001 µM), 0.663; with Gemcitabine + Pemetrexed (first compound 0.003162 µM), 0.719; in the assay with Gemcitabine + Pemetrexed (first compound 0.01 µM), 0.275. Besides, the figures for the relative viability with Gemcitabine + Pemetrexed (first compound 0.03162 µM) and in the assay with Gemcitabine + Pemetrexed (first compound 0.1 µM) were 0.177 and 0.161, respectively.

With NCI-H661, the relative viability amounted to 0.568 with Gemcitabine + Trametinib (first compound 0.001 µM); 0.606 in the assay with Gemcitabine + Trametinib (first compound 0.003162 µM); 0.464 with Gemcitabine + Trametinib (first compound 0.01 µM); 0.281 with Gemcitabine + Trametinib (first compound 0.03162 µM); 0.223 in the assay with Gemcitabine + Trametinib (first compound 0.1 µM); 0.282 with Gemcitabine + Phenformin (first compound 0.001 µM). Moreover, the relative viability with Gemcitabine + Phenformin (first compound 0.003162 µM) is 0.263; in the assay with Gemcitabine + Phenformin (first compound 0.01 µM), 0.231; with Gemcitabine + Phenformin (first compound 0.03162 µM), 0.197; with Gemcitabine + Phenformin (first compound 0.1 µM), 0.226; with Gemcitabine + Pemetrexed (first compound 0.001 µM) it was 0.895; with Gemcitabine + Pemetrexed (first compound 0.003162 µM), 0.998. The relative viability with Gemcitabine + Pemetrexed (first compound 0.01 µM) worked out at 0.891; with Gemcitabine + Pemetrexed (first compound 0.03162 µM), 0.299; with Gemcitabine + Pemetrexed (first compound 0.1 µM), 0.216.

Turning to NCI-H650, the relative viability amounted to 0.809 in the assay with Gemcitabine + Trametinib (first compound 0.001 µM); 0.469 in the assay with Gemcitabine + Trametinib (first compound 0.003162 µM); 0.126 with Gemcitabine + Trametinib (first compound 0.01 µM); 0.141 with Gemcitabine + Trametinib (first compound 0.03162 µM); 0.129 with Gemcitabine + Trametinib (first compound 0.1 µM); 0.387 with Gemcitabine + Phenformin (first compound 0.001 µM). Besides, the relative viability was found to be 0.255 with Gemcitabine + Phenformin (first compound 0.003162 µM); 0.202 with Gemcitabine + Phenformin (first compound 0.01 µM); 0.158 with Gemcitabine + Phenformin (first compound 0.03162 µM); 0.168 in the assay with Gemcitabine + Phenformin (first compound 0.1 µM); 0.865 in the assay with Gemcitabine + Pemetrexed (first compound 0.001 µM); 0.555 with Gemcitabine + Pemetrexed (first compound 0.003162 µM). For the same cell line, the results for the relative viability in the assay with Gemcitabine + Pemetrexed (first compound 0.01 µM), with Gemcitabine + Pemetrexed (first compound 0.03162 µM) and in the assay with Gemcitabine + Pemetrexed (first compound 0.1 µM) were 0.222, 0.128 and 0.12, respectively.

Take NCI-H647: the relative viability with Gemcitabine + Navitoclax (first compound 0.001 µM) was determined as 0.916; with Gemcitabine + Navitoclax (first compound 0.003162 µM) it was 0.253; in the assay with Gemcitabine + Navitoclax (first compound 0.01 µM), 0.0668; in the assay with Gemcitabine + Navitoclax (first compound 0.03162 µM) it was 0.0642; with Gemcitabine + Navitoclax (first compound 0.1 µM), 0.0514; with Gemcitabine + Trametinib (first compound 0.001 µM), 0.404. Moreover, the relative viability came to 0.286 with Gemcitabine + Trametinib (first compound 0.003162 µM); 0.117 with Gemcitabine + Trametinib (first compound 0.01 µM); 0.0909 in the assay with Gemcitabine + Trametinib (first compound 0.03162 µM); 0.0535 in the assay with Gemcitabine + Trametinib (first compound 0.1 µM); 0.334 with Gemcitabine + Phenformin (first compound 0.001 µM); 0.144 with Gemcitabine + Phenformin (first compound 0.003162 µM). In addition, the relative viability came out at 0.058 in the assay with Gemcitabine + Phenformin (first compound 0.01 µM); 0.0604 in the assay with Gemcitabine + Phenformin (first compound 0.03162 µM); 0.0397 with Gemcitabine + Phenformin (first compound 0.1 µM); 0.211 in the assay with Gemcitabine + Pemetrexed (first compound 0.001 µM); 0.178 with Gemcitabine + Pemetrexed (first compound 0.003162 µM); 0.072 with Gemcitabine + Pemetrexed (first compound 0.01 µM). The relative viability was determined as 0.0569 with Gemcitabine + Pemetrexed (first compound 0.03162 µM) and 0.0589 with Gemcitabine + Pemetrexed (first compound 0.1 µM).

In the case of 201T, the relative viability in the assay with Gemcitabine + Navitoclax (first compound 0.001 µM) turned out to be 1.17; in the assay with Gemcitabine + Navitoclax (first compound 0.003162 µM), 1.24; in the assay with Gemcitabine + Navitoclax (first compound 0.01 µM) it was 1.24; in the assay with Gemcitabine + Navitoclax (first compound 0.03162 µM), 1.19; with Gemcitabine + Navitoclax (first compound 0.1 µM), 0.494; with Gemcitabine + Trametinib (first compound 0.001 µM) it was 0.753. Further, the relative viability amounted to 0.714 in the assay with Gemcitabine + Trametinib (first compound 0.003162 µM); 0.736 with Gemcitabine + Trametinib (first compound 0.01 µM); 0.691 in the assay with Gemcitabine + Trametinib (first compound 0.03162 µM); 0.324 with Gemcitabine + Trametinib (first compound 0.1 µM); 0.43 in the assay with Gemcitabine + Phenformin (first compound 0.001 µM); 0.455 in the assay with Gemcitabine + Phenformin (first compound 0.003162 µM). Also, the relative viability was determined as 0.427 with Gemcitabine + Phenformin (first compound 0.01 µM); 0.334 in the assay with Gemcitabine + Phenformin (first compound 0.03162 µM); 0.263 with Gemcitabine + Phenformin (first compound 0.1 µM); 0.291 with Gemcitabine + Pemetrexed (first compound 0.001 µM); 0.327 in the assay with Gemcitabine + Pemetrexed (first compound 0.003162 µM); 0.288 with Gemcitabine + Pemetrexed (first compound 0.01 µM). Also, the relative viability was determined as 0.254 in the assay with Gemcitabine + Pemetrexed (first compound 0.03162 µM) and 0.286 with Gemcitabine + Pemetrexed (first compound 0.1 µM).
